Results as given in US20230146455A1, “TREATMENT OF INFLAMMATORY DISEASES WITH PEPTIDES AND PHARMACEUTICAL COMPOSITIONS” (Yuyu Pharma, Inc., priority 2020, published 2023).
“And” between values parts separate entries of the source, which are not always exact repeats. Equal entries are not always repeated. Where a SMILES comes first, the peptide text is derived from it. [ ]: non-standard residue; d: D form. Hyp = O=C(O)[C@@H]1C[C@@H](O)CN1

Columns and labels:
[1] = system: IL-2; experiment: Example 8 main study Luminex, LPS hPBMCs: IL-2; format: cell-based, human
Protocol: (§1) Human PBMCs were pretreated with YY-101, YDE-011, YDE-043 or reference compound; Xiidra® at various concentration (ranging from […] to 500 nM) for 2 h before stimulation. An equal volume of 0.5% DMSO was used as a vehicle control. Then, the cells were treated with LPS at 5 ug/ml, which was selected based on the pilot study. The supernatants from treated cells were harvested at 24 h and placed in a 96 well for Luminex cytokine & chemokine profiling using a Luminex 200 multiplex assay (Luminex; R&D system, USA).
(§2) The main study arm with triplicate wells per group in a 24-well plate: • 1. Blank • 2. PBMC: 0.5% DMSO • 3. PBMC+LPS (5 ug/ml) • 4. PBMC+YY-101 500 nM • 5. PBMC+YY-101 50 nM • 6. PBMC+YY-101 5 nM • 7. PBMC+YY-101 0.5 nM • 8. PBMC+LPS (5 ug/ml)+Xiidra® 500 nM • 9. PBMC+LPS (5 ug/ml)+Xiidra® 50 nM • 10. PBMC+LPS (5 ug/ml)+Xiidra® 5 nM • 11. PBMC+LPS (5 ug/ml)+Xiidra® 0.5 nM • 12. PBMC+LPS (5 ug/ml)+Xiidra® 0.05 nM • 13. PBMC+LPS (5 ug/ml)+Xiidra® 0.005 nM • 14. PBMC+LPS (5 ug/ml)+YY-101 500 nM • 15. PBMC+LPS (5 ug/ml)+YY-101 50 nM • 16. PBMC+LPS (5 ug/ml)+YY-101 5 nM • 17. PBMC+LPS (5 ug/ml)+YY-101 0.5 nM • 18. PBMC+LPS (5 ug/ml)+YY-101 0.05 nM • 19. PBMC+LPS (5 ug/ml)+YY-101 0.005 nM • 20. PBMC+LPS (5 ug/ml)+YDE-011 500 nM • 21. PBMC+LPS (5 ug/ml)+YDE-011 50 nM • 22. PBMC+LPS (5 ug/ml)+YDE-011 5 nM • 23. PBMC+LPS (5 ug/ml)+YDE-011 0.5 nM • 24. PBMC+LPS (5 ug/ml)+YDE-011 0.05 nM • 25. PBMC+LPS (5 ug/ml)+YDE-011 0.005 nM • 26. PBMC+LPS (5 ug/ml)+YDE-043 500 nM • 27. PBMC+LPS (5 ug/ml)+YDE-043 50 nM • 28. PBMC+LPS (5 ug/ml)+YDE-043 5 nM • 29. PBMC+LPS (5 ug/ml)+YDE-043 0.5 nM • 30. PBMC+LPS (5 ug/ml)+YDE-043 0.05 nM • 31. PBMC+LPS (5 ug/ml)+YDE-043 0.005 nM
(§3) Multiplex assay was used to measure 30 cytokines and chemokines. The 1:200 diluted cell supernatant and serial dilution of the standard were dispensed into a 96 well plate at 50 ul/well. Then, the pre-mixed cocktail of antibody-coated magnetic beads was dispensed at 50 ul/well and incubated at room temperature for 2 h in a horizontal orbital microplate shaker at 800±500 rpm. The beads were washed using a magnetic device to prevent loss. The biotin-antibody was dispensed in 50 ul of each well and incubated at room temperature for 1 h in a shaker at 800±500 rpm. After washing, streptavidin-PE was added at 50 ul/well and incubated at room temperature for 30 min in a shaker under the same conditions. Finally, after washing, wash buffer (100 ul/well) was added to the plate and incubated in a shaker for 2 min. The Luminex™ 200 setting were set according to the manufacturer's protocol. The data was calculated with a standard five-parameter logistic nonlinear regression analysis of the data (xPonent software 4.2, USA). Results were presented as concentration (ng/ml or pg/ml).

[2] = system: CCL2/MCP-1; experiment: Example 8 main study Luminex, LPS hPBMCs: CCL2/MCP-1; format: cell-based, human; conditions: for CCL2/MCP-1 Concentration: single replicates
Protocol: as §1, §2, §3

[3] = PBMC + LPS(5 ug/ml) + compound 0.005 nM, 24 h
[4] = PBMC + LPS(5 ug/ml) + compound 0.05 nM, 24 h
[5] = PBMC + LPS(5 ug/ml) + compound 0.5 nM, 24 h
[6] = PBMC + LPS(5 ug/ml) + compound 5 nM, 24 h
[7] = PBMC + LPS(5 ug/ml) + compound 50 nM, 24 h
[8] = PBMC + LPS(5 ug/ml) + compound 500 nM, 24 h
[9] = PBMC + compound 0.05 uM, no LPS
[10] = at as low as 5 μM, LPS 5 ug/mL 24 hrs
[11] = PBMC + LPS(5 ug/ml) + YY101 0.005 nM
[12] = PBMC + LPS(5 ug/ml) + YY101 0.05 nM
[13] = PBMC + LPS(5 ug/ml) + YY101 0.5 nM
[14] = PBMC + LPS(5 ug/ml) + YY101 5 nM
[15] = PBMC + LPS(5 ug/ml) + YY101 50 nM
[16] = PBMC + LPS(5 ug/ml) + YY101 500 nM

SMILES: CC(C)C[C@H](NC(=O)CNC(=O)[C@H](CC(=O)O)NC(=O)[C@H](CCC(N)=O)NC(=O)CNC(=O)[C@@H]1C[C@@H](O)CN1)C(=O)N[C@@H](C)C(=O)NCC(=O)N1CCC[C@H]1C(=O)N[C@@H](CCCCN)C(=O)O [YY-101] (H-[Hyp]GQDGLAGPK-OH; N-terminus and C-terminus assumed)
- IL-2 Concentration, individual wells [1, 3]: 2746.7 pg/mL and 2707.7 pg/mL and 2551.7 pg/mL
- IL-2 MFI, individual wells [1, 3]: 64.5 and 64.0 and 62.0
- IL-2 MFI, Mean ([1]; PBMC + LPS(5 ug/ml) + compound 0.005 nM, 24 h, LPS alone Mean 80.5): 63.5
- IL-2 Concentration, Mean ([1]; PBMC + LPS(5 ug/ml) + compound 0.005 nM, 24 h, LPS alone Mean 3988.7): 2668.7 pg/mL
- IL-2 Concentration, individual wells [1, 4]: 2785.6 pg/mL and 3174.7 pg/mL and 3058.1 pg/mL
- IL-2 MFI, individual wells [1, 4]: 65.0 and 70.0 and 68.5
- IL-2 MFI, Mean ([1]; PBMC + LPS(5 ug/ml) + compound 0.05 nM, 24 h, LPS alone Mean 80.5): 67.8
- IL-2 Concentration, Mean ([1]; PBMC + LPS(5 ug/ml) + compound 0.05 nM, 24 h, LPS alone Mean 3988.7): 3006.1 pg/mL
- IL-2 Concentration, individual wells [1, 5]: 2863.5 pg/mL and 2785.6 pg/mL and 2824.6 pg/mL
- IL-2 MFI, individual wells [1, 5]: 66.0 and 65.0 and 65.5
- IL-2 MFI, Mean ([1]; PBMC + LPS(5 ug/ml) + compound 0.5 nM, 24 h, LPS alone Mean 80.5): 65.5
- IL-2 Concentration, Mean ([1]; PBMC + LPS(5 ug/ml) + compound 0.5 nM, 24 h, LPS alone Mean 3988.7): 2824.6 pg/mL
- IL-2 Concentration, individual wells [1, 6]: 2473.6 pg/mL and 2629.7 pg/mL and 2941.4 pg/mL
- IL-2 MFI, individual wells [1, 6]: 61.0 and 63.0 and 67.0
- IL-2 MFI, Mean ([1]; PBMC + LPS(5 ug/ml) + compound 5 nM, 24 h, LPS alone Mean 80.5): 63.7
- IL-2 Concentration, Mean ([1]; PBMC + LPS(5 ug/ml) + compound 5 nM, 24 h, LPS alone Mean 3988.7): 2681.6 pg/mL
- IL-2 Concentration, individual wells [1, 7]: 2473.6 pg/mL and 2707.7 pg/mL and 2863.5 pg/mL
- IL-2 MFI, individual wells [1, 7]: 61.0 and 64.0 and 66.0
- IL-2 MFI, Mean ([1]; PBMC + LPS(5 ug/ml) + compound 50 nM, 24 h, LPS alone Mean 80.5): 63.7
- IL-2 Concentration, Mean ([1]; PBMC + LPS(5 ug/ml) + compound 50 nM, 24 h, LPS alone Mean 3988.7): 2681.6 pg/mL
- IL-2 Concentration, individual wells [1, 8]: 2707.7 pg/mL and 2863.5 pg/mL and 2551.7 pg/mL
- IL-2 MFI, individual wells [1, 8]: 64.0 and 66.0 and 62.0
- IL-2 MFI, Mean ([1]; PBMC + LPS(5 ug/ml) + compound 500 nM, 24 h, LPS alone Mean 80.5): 64.0
- IL-2 Concentration, Mean ([1]; PBMC + LPS(5 ug/ml) + compound 500 nM, 24 h, LPS alone Mean 3988.7): 2707.6 pg/mL
- IL-2 Concentration, individual wells ([1]; PBMC + compound 0.5 nM, no LPS): 173.5 pg/mL and 337.0 pg/mL
- IL-2 MFI, individual wells ([1]; PBMC + compound 0.5 nM, no LPS): 32.0 and 34.0
- IL-2 MFI, Mean ([1]; PBMC + compound 0.5 nM, no LPS, 0.5% DMSO Mean 30.7): 33.0
- IL-2 Concentration, Mean ([1]; PBMC + compound 0.5 nM, no LPS, 0.5% DMSO Mean 61.8): 255.2 pg/mL
- IL-2 Concentration, individual wells ([1]; PBMC + compound 5 nM, no LPS): 173.5 pg/mL
- IL-2 MFI, individual wells ([1]; PBMC + compound 5 nM, no LPS): 32.0
- IL-2 MFI, Mean ([1]; PBMC + compound 5 nM, no LPS, 0.5% DMSO Mean 30.7): 32.0
- IL-2 Concentration, Mean ([1]; PBMC + compound 5 nM, no LPS, 0.5% DMSO Mean 61.8): 173.5 pg/mL
- IL-2 Concentration, individual wells [1, 9]: 659.4 pg/mL and 337.0 pg/mL
- IL-2 MFI, individual wells [1, 9]: 38.0 and 34.0
- IL-2 MFI, Mean ([1]; PBMC + compound 0.05 uM, no LPS, 0.5% DMSO Mean 30.7): 36.0
- IL-2 Concentration, Mean ([1]; PBMC + compound 0.05 uM, no LPS, 0.5% DMSO Mean 61.8): 498.2 pg/mL
- IL-2 Concentration, individual wells ([1]; PBMC + compound 50 nM, no LPS): 48.8 pg/mL and 173.5 pg/mL
- IL-2 MFI, individual wells ([1]; PBMC + compound 50 nM, no LPS): 30.5 and 32.0
- IL-2 MFI, Mean ([1]; PBMC + compound 50 nM, no LPS, 0.5% DMSO Mean 30.7): 31.3
- IL-2 Concentration, Mean ([1]; PBMC + compound 50 nM, no LPS, 0.5% DMSO Mean 61.8): 111.2 pg/mL
- IL-2 Concentration, individual wells ([1]; PBMC + compound 500 nM, no LPS): 132.3 pg/mL and 255.5 pg/mL
- IL-2 MFI, individual wells ([1]; PBMC + compound 500 nM, no LPS): 31.5 and 33.0
- IL-2 MFI, Mean ([1]; PBMC + compound 500 nM, no LPS, 0.5% DMSO Mean 30.7): 32.3
- IL-2 Concentration, Mean ([1]; PBMC + compound 500 nM, no LPS, 0.5% DMSO Mean 61.8): 193.9 pg/mL
- LPS-induced IL-2 (in words) [1, 10]: significantly reduced
- CCL2/MCP-1 Concentration, Mean [2, 11]: 4528.1 pg/mL
- CCL2/MCP-1 Concentration [2, 11]: 4528.4 pg/mL and 4630.2 pg/mL and 4425.5 pg/mL
- CCL2/MCP-1 Concentration, Mean [2, 12]: 4596.0 pg/mL
- CCL2/MCP-1 Concentration [2, 12]: 4528.4 pg/ml (2×) and 4731.0 pg/ml
- CCL2/MCP-1 Concentration, Mean [2, 13]: 4596.3 pg/mL
- CCL2/MCP-1 Concentration [2, 13]: 4630.2 pg/ml (2×) and 4528.4 pg/ml
- CCL2/MCP-1 Concentration, Mean [2, 14]: 4629.9 pg/mL
- CCL2/MCP-1 Concentration [2, 14]: 4630.2 pg/mL and 4528.4 pg/mL and 4731.0 pg/mL
- CCL2/MCP-1 Concentration, Mean [2, 15]: 4613.3 pg/mL
- CCL2/MCP-1 Concentration [2, 15]: 4579.5 pg/ml and 4630.2 pg/ml (2×)
- CCL2/MCP-1 Concentration, Mean [2, 16]: 4459.8 pg/mL
- CCL2/MCP-1 Concentration [2, 16]: 4425.5 pg/ml (2×) and 4528.4 pg/ml
- CCL2/MCP-1 Concentration, Mean ([2]; PBMC + YY101 0.5 nM, no LPS): 4679.6 pg/mL
- CCL2/MCP-1 Concentration ([2]; PBMC + YY101 0.5 nM, no LPS): 4528.4 pg/mL and 4830.8 pg/mL
- CCL2/MCP-1 Concentration, Mean ([2]; PBMC + YY101 5 nM, no LPS): 4425.5 pg/mL
- CCL2/MCP-1 Concentration ([2]; PBMC + YY101 5 nM, no LPS): 4425.5 pg/mL
- CCL2/MCP-1 Concentration, Mean ([2]; PBMC + YY101 0.05 uM, no LPS): 5025.5 pg/mL
- CCL2/MCP-1 Concentration ([2]; PBMC + YY101 0.05 uM, no LPS): 5782.0 pg/mL and 4269.1 pg/mL
- CCL2/MCP-1 Concentration, Mean ([2]; PBMC + YY101 50 nM, no LPS): 4373.5 pg/mL
- CCL2/MCP-1 Concentration ([2]; PBMC + YY101 50 nM, no LPS): 4321.5 pg/mL and 4425.5 pg/mL
- CCL2/MCP-1 Concentration, Mean ([2]; PBMC + YY101 500 nM, no LPS): 4475.9 pg/mL
- CCL2/MCP-1 Concentration ([2]; PBMC + YY101 500 nM, no LPS): 4321.5 pg/mL and 4630.2 pg/mL
- LPS-induced CCL-2 (in words) [2, 10]: significantly reduced
